For the experiment, the system named is 565726-208-R1-J5-PDC complex spheroids, growth inhibition. Briefly: Anticancer human tumor 565726-208-R1-J5-PDC patient-derived pancreatic adenocarcinoma cell line growth inhibition [RAS]. The conditions noted are these: for viability, T/C: stronger effect = lower value. A digest of the protocol:
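Tumour cells grown as complex spheroids with HUVEC endothelial cells and mesenchymal stem cells, treated with RAS pathway inhibitor combinations. Each agent spans half-log steps from near clinical Cmax, or 10 microM where Cmax is unknown.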

We go through four compounds from PubChem BioAssay AID2060899 (Molecular Pharmacology Branch, DTP, NCI, 2025).

The structures appear in SMILES notation.
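Further: spheroids exposed to compounds for seven days before readout.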
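Wherever viability, T/C is given: 100% = DMSO vehicle control viability.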

`Nc1ccn(C2OC(CO)C(O)C2(F)F)c(=O)n1` (centres undefined) + CCn1c(-c2cccnc2C(C)OC)c2c3cc(ccc31)N1CCOC(CC(NC(=O)C(C(C)C)N(C)C(=O)C3(F)CCN(C(=O)C#CC(C)(C)N(C)C)CC3)C(=O)N3CCCC(N3)C(=O)OCC(C)(C)C2)C1: the half-maximal inhibitory concentration (IC50) by setting is: (curve of first compound, second compound 0.000949 µM) 82.4 nM; (curve of first compound, second compound 0.003 µM) 77.2 nM; (curve of first compound, second compound 0.00949 µM) 72.3 nM; (curve of first compound, second compound 0.03 µM) 70.4 nM; (curve of first compound, second compound 0.0949 µM) 77.2 nM; (curve of first compound, second compound 0.3 µM) 44 nM. The viability, T/C is, setting by setting: (second compound 0.000949 µM, first compound 0.00316 µM) 107%; (second compound 0.000949 µM, first compound 0.01 µM) 91.8%; (second compound 0.000949 µM, first compound 0.0316 µM) 68.1%; (second compound 0.000949 µM, first compound 0.1 µM) 47%; (second compound 0.000949 µM, first compound 0.316 µM) 32.3%; (second compound 0.000949 µM, first compound 1 µM) 27.9%. The viability, T/C is, setting by setting: (second compound 0.003 µM, first compound 0.00316 µM) 110%; (second compound 0.003 µM, first compound 0.01 µM) 88.6%; (second compound 0.003 µM, first compound 0.0316 µM) 69.2%; (second compound 0.003 µM, first compound 0.1 µM) 40.9%; (second compound 0.003 µM, first compound 0.316 µM) 38.6%; (second compound 0.003 µM, first compound 1 µM) 29.6%. Further, the viability, T/C is 97.5% (second compound 0.00949 µM, first compound 0.00316 µM); 91.2% (second compound 0.00949 µM, first compound 0.01 µM); 66% (second compound 0.00949 µM, first compound 0.0316 µM); 42.5% (second compound 0.00949 µM, first compound 0.1 µM); 36.1% (second compound 0.00949 µM, first compound 0.316 µM); 26.2% (second compound 0.00949 µM, first compound 1 µM). Also, the viability, T/C (second compound 0.03 µM, first compound 0.00316 µM) was 90.1%; the viability, T/C (second compound 0.03 µM, first compound 0.01 µM) is 90.2%; the viability, T/C (second compound 0.03 µM, first compound 0.0316 µM) was 62.7%; the viability, T/C (second compound 0.03 µM, first compound 0.1 µM) was 43.3%; the viability, T/C (second compound 0.03 µM, first compound 0.316 µM) was 33.6%; the viability, T/C (second compound 0.03 µM, first compound 1 µM) is 22.8%. Besides, the viability, T/C is 85.1% (second compound 0.0949 µM, first compound 0.00316 µM); 88.4% (second compound 0.0949 µM, first compound 0.01 µM); 71.9% (second compound 0.0949 µM, first compound 0.0316 µM); 43% (second compound 0.0949 µM, first compound 0.1 µM); 31.4% (second compound 0.0949 µM, first compound 0.316 µM); 24.4% (second compound 0.0949 µM, first compound 1 µM). For the same compound, the viability, T/C was 81.8% (second compound 0.3 µM, first compound 0.00316 µM); 75.4% (second compound 0.3 µM, first compound 0.01 µM); 52.6% (second compound 0.3 µM, first compound 0.0316 µM); 37.6% (second compound 0.3 µM, first compound 0.1 µM); 30.8% (second compound 0.3 µM, first compound 0.316 µM); 21.2% (second compound 0.3 µM, first compound 1 µM).
Consider `CC1(C)CCC(Nc2ncc(C(F)(F)F)c(-c3c[nH]c4c(P(C)(C)=O)c(C#N)ccc34)n2)CN1` (centres undefined), for which the viability, T/C is, setting by setting: (compound 0.003 µM) 51.3% [middle of 4 runs]; (compound 0.00949 µM) 37.9% [middle of 4 runs]; (compound 0.03 µM) 31.7% [middle of 4 runs]; (compound 0.0949 µM) 36.9% [middle of 4 runs]; (compound 0.3 µM) 34.4% [middle of 4 runs]. For the same compound, the IC50 (curve of compound) was 3.92 nM [middle of 4 runs].
As for `CCN1CCN(Cc2ccc(Nc3ncc(F)c(-c4cc(F)c5nc(C)n(C(C)C)c5c4)n3)nc2)CC1`, the viability, T/C was 96.8% [middle of 4 runs] (compound 0.00316 µM), 81.5% [middle of 4 runs] (compound 0.0316 µM) and 77.8% [middle of 4 runs] (compound 0.1 µM). For the same compound, where the note is “curve of compound”, the 50% inhibitory concentration (IC50) is over 1000 nM.
Take `CCC(CC)c1cc(NC2CCC(N)C2)n2nccc2n1` (centres undefined) + C=CC(=O)N1CCN(c2nc(OCC3CCCN3C)nc3c(F)c(-c4nc(N)cc(C)c4C(F)(F)F)c(Cl)cc23)C(C)C1: the half-maximal inhibitory concentration (IC50) is, setting by setting: (curve of first compound, second compound 0.00316 µM) 1930 nM; (curve of first compound, second compound 0.01 µM) 1700 nM; (curve of first compound, second compound 0.0316 µM) 1620 nM; (curve of first compound, second compound 0.1 µM) 1600 nM; (curve of first compound, second compound 0.316 µM) 1580 nM; (curve of first compound, second compound 1 µM) 1720 nM. The viability, T/C was 152% (second compound 0.00316 µM, first compound 0.0316 µM); 180% (second compound 0.00316 µM, first compound 0.1 µM); 128% (second compound 0.00316 µM, first compound 0.316 µM); 110% (second compound 0.00316 µM, first compound 1 µM); 1.79% (second compound 0.00316 µM, first compound 3.16 µM); 2.13% (second compound 0.00316 µM, first compound 10 µM). Also, the viability, T/C by setting is: (second compound 0.01 µM, first compound 0.0316 µM) 166%; (second compound 0.01 µM, first compound 0.1 µM) 179%; (second compound 0.01 µM, first compound 0.316 µM) 114%; (second compound 0.01 µM, first compound 1 µM) 94.6%; (second compound 0.01 µM, first compound 3.16 µM) 3.11%; (second compound 0.01 µM, first compound 10 µM) 1.95%. Also, the viability, T/C by setting is: (second compound 0.0316 µM, first compound 0.0316 µM) 174%; (second compound 0.0316 µM, first compound 0.1 µM) 170%; (second compound 0.0316 µM, first compound 0.316 µM) 125%; (second compound 0.0316 µM, first compound 1 µM) 88.1%; (second compound 0.0316 µM, first compound 3.16 µM) 1.53%; (second compound 0.0316 µM, first compound 10 µM) 2.03%. Further, the viability, T/C reads like this: (second compound 0.1 µM, first compound 0.0316 µM) 221%; (second compound 0.1 µM, first compound 0.1 µM) 184%; (second compound 0.1 µM, first compound 0.316 µM) 102%; (second compound 0.1 µM, first compound 1 µM) 96.2%; (second compound 0.1 µM, first compound 3.16 µM) 1.59%; (second compound 0.1 µM, first compound 10 µM) 2.52%. For the same compound, the viability, T/C reads like this: (second compound 0.316 µM, first compound 0.0316 µM) 182%; (second compound 0.316 µM, first compound 0.1 µM) 169%; (second compound 0.316 µM, first compound 0.316 µM) 103%; (second compound 0.316 µM, first compound 1 µM) 92.5%; (second compound 0.316 µM, first compound 3.16 µM) 1.41%; (second compound 0.316 µM, first compound 10 µM) 2.15%. Also, the viability, T/C is, setting by setting: (second compound 1 µM, first compound 0.0316 µM) 175%; (second compound 1 µM, first compound 0.1 µM) 176%; (second compound 1 µM, first compound 0.316 µM) 136%; (second compound 1 µM, first compound 1 µM) 92.7%; (second compound 1 µM, first compound 3.16 µM) 1.49%; (second compound 1 µM, first compound 10 µM) 1.88%.
